In patent US20150223456A1, “PESTICIDAL COMPOUNDS” (SYNGENTA PARTICIPATIONS AG, priority 2011, published 2015):

melting point: 206 to 207 °C
Structure (SMILES): O=C(NCC1(c2ccc(Cl)nc2Cl)CC1)c1cccnc1Cl [A.122, 2-Chloro-N-[1-(2,6-dichloro-pyridin-3-yl)-cyclopropylmethyl]nicotinamide]
